Data as given in US12383534B2, “Methods for treating cancer” (REGENTS OF THE UNIVERSITY OF MINNESOTA, priority 2021, dated 2025).

How the values were obtained:
[1] = system: CIC-DUX4 target genes ETV1, 4, and 5; assay: RT-qPCR for CIC-DUX4 target genes in NCC-CDS-X1 cells; type: cell-based, human; conditions: NCC-CDS-X1, 24 hours, highest concentration
Method: RNA was extracted using an RNA extraction kit (Zymo) and cDNA was made using 0.5 μg total RNA with oligo-dT primer and Verso cDNA Synthesis Kit (Thermo Scientific) following the manufacturer's instructions. qPCRs were performed by using Premix Ex Taq (Probe qPCR, Takara) or SYBR-green. Gene expression levels were normalized to that of GAPDH and analyzed with 7500 System Software using the ACT method (Applied Biosystems). RNA-seq library preparation was done with 500 ng total RNA from NCC-CDS-X1 cells treated for 4 or 24 hours with iP300w (0.3 μM) using the Swift Rapid RNA Library Kit (SwiftBioscience). 36 base paired-end sequencing was performed on an Illumina NextSeq instrument at the University of Minnesota Genomics Center.
Next, the effect of the stereoisomers on the CIC-DUX4 target genes in cells cultured with the compounds for 24 hours was analyzed.

p300 and CBP = conditions: in vitro and in vivo; cited from earlier work
[2] = system: NCC-CDS-X1 cells (CIC-DUX4 sarcoma cell line); assay: Cell viability (ATP) assay in NCC-CDS-X1 cells; type: cell-based, human
Method: Basal media were purchased from HyClone, fetal bovine serum (FBS) was from PeakSerum (Ps-FB3, lot 293Q16), and Glutamax (Glu) and Penicillin/Streptomycin (P/S) were from GIBCO. NCC-CDS-X1 (CIC-DUX4 sarcoma cell line, a generous gift from Tadashi Kondo) cell line was cultured in RPMI with 10% FBS, Glu and P/S, Kitra-SRS (CIC-DUX4 sarcoma cell line, a generous gift from Hidetatsu Otani), 3T3, 293T and C2C12 cell lines were cultured in DMEM/10% FBS/Glu/P/S. The immortalized human myoblast LHCN-M2 cell line was cultured in proliferation medium: F10 supplemented with 20% FBS, 2-mercaptoethanol 1× (GIBCO), 10^−9 M dexamethasone (Sigma), 10 ng/mL bFGF (Peprotech), and Glu/P/S. All cells were cultured at 37° C. in a 5% CO2 atmosphere.
Cell lines were plated in a 96 well dish (1×10^5 cells/well), and the following day were treated with iP300w or its stereoisomers. ATP assays were performed using CellTiter-Glo® Luminescent Cell Viability Assay (Promega) according to the manufacturer's instructions. Luminescence was analyzed on POLARstar Optima Microplate Reader (BMG Labtech, Offenburg, Germany).
The activity of the various iP300w stereoisomers against NCC-CDS-X1 cells was evaluated. Cultures were treated with serial dilutions, ranging from 0.003 μM to 3.0 μM, for up to 96 hours. In cells treated with iP300w, a significant decrease in cell viability was evident at the lowest concentration (0.003 μM) at 48 and 96 hours (FIG. 3A). The effect was dose- and time-dependent. […] (FIG. 2B and FIG. 9).

[3] = system: wide spectrum of cancer cell lines; conditions: cited from earlier work
CDS cell lines = conditions: screens of FDA-approved anticancer molecules; cited from earlier work
Kitra-SRS cells (IGF-1R) = conditions: cited from earlier work

SMILES: CNC(=O)Nc1ccc2c(c1)CC[C@@]21OC(=O)N(CC(=O)N(Cc2ccc(F)cc2)[C@@H](C)C(F)(F)F)C1=O [A-485, reference compound]
- effect on ETV4 expression at the highest concentration [1]: notable effect on ETV4
- inhibition of acetylation by p300 and CBP (p300 and CBP): inhibit acetylation by p300 and CBP both in vitro and in vivo
- fold less potent than iP300w (from IC50 values) ([2]; NCC-CDS-X1, IC50 at 48 and 96 hours): approximately 200 fold
- activity on cell viability ([2]; NCC-CDS-X1, up to 96 hours, 0.003 to 3.0 μM): also showed activity, but at higher concentrations
- efficacy against melanoma and NUT midline carcinoma ([3]; high MITF-expressing melanoma cell lines and NUT midline carcinoma): effective against high MITF-expressing melanoma cell lines
- effect on proliferation of cancer cell lines ([3]; more prominently in those of hematopoietic origin): suppress proliferation of a wide spectrum of cancer cell lines

SMILES: CC(C)C[C@H](NC(=O)[C@H](Cc1ccccc1)NC(=O)c1cnccn1)B(O)O [bortezomib]
- effectiveness in vitro on CDS cell lines (CDS cell lines): some degree of effectiveness in vitro

SMILES: C[C@@H](Oc1cc(-c2cnn(C3CCNCC3)c2)cnc1N)c1c(Cl)ccc(F)c1Cl [crizotinib]
- effectiveness in vitro on CDS cell lines (CDS cell lines): some degree of effectiveness in vitro

SMILES: C[C@]1(O)C[C@@H](c2nc(-c3ccc4ccc(-c5ccccc5)nc4c3)c3c(N)nccn32)C1 [linsitinib]
- effect on cell proliferation (Kitra-SRS cells (IGF-1R)): reduced cell proliferation
